Laboratory results: paper PMC9572811, “Synthesis of Novel Benzimidazole-Based Thiazole Derivatives as Multipotent Inhibitors of α-Amylase and α-Glucosidase: In Vitro Evaluation along with Molecular Docking Study” (Molecules, 2022)
Where two headings read alike, the source gives them in different places.

Columns and labels:
α-amylase = target: T1, α-amylase (Sus scrofa, UniProt P00690); assay: α-amylase inhibition assay; type: biochemical, Porcine
T1 sequence (P00690 16-511): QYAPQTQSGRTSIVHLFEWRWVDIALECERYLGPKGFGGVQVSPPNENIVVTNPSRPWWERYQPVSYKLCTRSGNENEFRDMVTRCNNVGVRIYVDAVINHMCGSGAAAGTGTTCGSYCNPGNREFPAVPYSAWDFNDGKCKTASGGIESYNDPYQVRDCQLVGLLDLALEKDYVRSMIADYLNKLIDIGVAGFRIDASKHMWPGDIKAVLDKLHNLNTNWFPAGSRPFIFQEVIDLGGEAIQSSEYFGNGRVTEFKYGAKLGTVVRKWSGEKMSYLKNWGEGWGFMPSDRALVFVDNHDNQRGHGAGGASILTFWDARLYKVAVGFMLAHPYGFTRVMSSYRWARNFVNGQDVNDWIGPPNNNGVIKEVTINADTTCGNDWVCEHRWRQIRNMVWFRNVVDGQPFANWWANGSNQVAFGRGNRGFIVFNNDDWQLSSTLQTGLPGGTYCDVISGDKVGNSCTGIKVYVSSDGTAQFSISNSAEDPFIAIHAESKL

[1] = in vitro, porcine pancreatic α-amylase, starch substrate, acarbose as standard

IC50 (α-amylase; [1])	melting point	IC50 (α-amylase)	SMILES
1.9 ± 0.1 µM	–	–	O=[N+]([O-])c1ccc(C(CSc2nc3ccccc3[nH]2)=NNc2nc(-c3ccccc3F)cs2)cc1 [Compound 4]
1.3 ± 0.05 µM	199 to 200 °C	–	O=[N+]([O-])c1ccc(C(CSc2nc3ccccc3[nH]2)=NNc2nc(-c3ccc(F)cc3)cs2)cc1 [Compound 3]
–	206 to 207 °C	2.2 ± 0.1 µM	O=[N+]([O-])c1ccc(/C(CSc2nc3ccccc3[nH]2)=N\Nc2nc(-c3ccc(Cl)c(Cl)c3)cs2)cc1 [Compound 1]
